Measurements reported in EP0960886B1, “Peptide T and related peptides in the treatment of inflammation, including multiple sclerosis” (priority 1992, dated 1993).

Assays:
[1] = Treatment of multiple sclerosis patients, case reports (Examples 1 to 4); format: in vivo, human
Method: […] They were treated with prednisone and later with physiotherapy, with little effect. […] Tone was increased in both lower limbs and they had bilateral ankle clonus. Deep tendon reflexes were 2+ in the arms, 3+ in both knees and ankles and the plantar responses were extensor.
They were started on Peptide T, 8.5 mg subcutaneously daily. […] Their frequency of nocturia was reduced, fine motor control improved, stuttering decreased, their legs were less spastic and they could stand with minimal support. […] The patient has remained stable rather than following their normal progressive downhill course for the months they have remained on Peptide T.
A person was diagnosed with optic neuritis secondary to multiple sclerosis after presenting with numbness, impaired motor function, and blurred vision (20/300 bilaterally). Their somatic neurological examination was within normal limits. Minor episodes of numbness and impaired speech, balance and co-ordination had occurred over 6 months, as well as headache and loss of vision.
Peptide T therapy was started.
A person with their first episode of multiple sclerosis as manifest by optic neuritis and complete blindness in the right eye for 2 weeks, numbness in their right leg and then both legs. […] They had worsening of their ataxias with blurred vision and oscillopsia and was given prednisone 80 mg per day. […] Findings were typical of demyelination consistent with MS. […] The tone was increased in their lower limbs and they had non-sustained ankle clonus bilaterally. Their knee jerk was increased on the right compared to the left. Plantar responses were both upgoing. They had decreased position, vibration, light touch and cold sensation in the feet compared to the hands.
About 2 months later the patient was started on Peptide T 8.5 mg subcutaneously daily. […] They experienced improved feelings in their fingers, fine movements of their hands and improved cognitive function.
A person with a history of dizziness, ataxia, episodes of vertigo, impairment of motor function and generalised weakness of the legs was treated with dilantin and admitted to hospital. […] They were reassessed about 2 years later for episodes of dizziness, and complaints of leg spasms. […] Plantar response was downgoing and they had upwards gaze vertical nystagmus as previously noted.

PBMC = test: Antigen (measles, mumps and rubella vaccine) induced PBMC proliferation (Example 11); format: cell-based, human; settings: without Peptide T 3.26 ± 0.55
Method: PBMC were incubated as described in relation to Table III in Example 9 in the presence of live, attenuated measles, mumps and rubella vaccine (Merck Sharp and Dohme, Canada) at a final dilution of 1:20. Peptide T was added either on day 1 of incubation or on a daily basis. Results are expressed as a proliferation index ± standard deviation.

TNFα = test: Production of TNFα by Con A stimulated PBMC, radioimmune assay (Example 12); format: cell-based, human
Method: Production of Tumour Necrosis Factor α (TNFα): 5x10^6 PBMC/ml were incubated in the presence of Con A (6.25µg/ml) for 48 hours in a humid atmosphere, 5% CO2, 37°C. Peptide T (10^-9M) was added at t=0 and 24 hours. At the end of incubation, SEPHADEX™ G25 (Pharmacia) was added (10mg/ml) and incubated for 10 minutes to remove mitogen. PBMC and SEPHADEX were pelleted by centrifugation and the supernatant tested for levels of TNFα using a TNFα radioimmune assay kit from Amersham. Samples were analysed in duplicate.

Molt-4 = test: Growth of spontaneously proliferating cell line Molt-4; format: cell-based; settings: p56^lck negative human T lymphoma cell line
Source text: Molt-4 is a human T lymphoma cell line, p56^lck negative, and Jurkat is a human T cell line, p56^lck positive, that will grow spontaneously in the absence of exogenous stimuli.

K562 target cells = test: Macrophage cytotoxicity assay (two step, K562 target cells); format: cell-based
Method: The MO/MAC cytotoxicity assay is a two step assay. After isolation of adherent cells (mainly MO/MAC) from PBMC, MO/MAC are activated by lymphokines (including IFN gamma and LPS. Subsequent to washing which removes activators, ^3H-thymidine labelled K562 target cells were added to activated MO/MAG and incubated for 3 days. The degree of cytotoxicity was proportional to the amount of radioactive label released into the culture supernatant, is shown in the following scheme : [drawing 8]

K562 cells = test: MO/MAC supernatant cytotoxicity against K562 cells; format: cell-based
Method: Supernatant (SN) of activated MO/MAC were collected from monolayers of PBMC derived adherent cells that had been exposed to LPS for 23 hours. This SN was tested for cytolytic activity against ^3H-thymidine labelled K562 cells in a 48 hour, 37°C cytotoxicity assay. SN were stored at 4°C overnight or stored frozen at -20°C for longer periods before using.
The ability of MO/MAC culture SN to lyse target K562 cells was determined in the presence of Peptide T. MO/MAC culture SN was used at a final dilution of 1:6 in the culture well.

[2] = tested on: Human umbilical vein endothelial cells; test: TNFα-induced tissue factor expression on endothelial cells, ELISA (Example 17); format: cell-based; settings: TNFα 3 µg/ml for 4 hours; increasing concentrations of Peptide T
Method: Methodology Human umbilical vein endothelial cells were cultured essentially by the method of Bevilacqua et al. Proc. Natl. Acad. Sci. USA 83 4533-4537 (1986). Cell cultures were treated with TNFα at 3 µg/ml for 4 hours at 37° in the presence or absence of Peptide T. Tissue factor expression was measured by an ELISA, following absorbence at 450nm.

SMILES: C[C@@H](N)C(=O)N[C@@H](CO)C(=O)N[C@H](C(=O)N[C@H](C(=O)N[C@H](C(=O)N[C@@H](CC(N)=O)C(=O)N[C@@H](Cc1ccc(O)cc1)C(=O)N[C@H](C(N)=O)[C@@H](C)O)[C@@H](C)O)[C@@H](C)O)[C@@H](C)O [Peptide T, D-Ala-Ser-Thr-Thr-Thr-Asn-Tyr-Thr-NH2]
- intellectual and motor functioning ([1]; Example 1: person with MS, 8.5 mg subcutaneously daily, within a few weeks, sustained over 6 months): marked symptomatic improvement
- visual acuity bilaterally ([1]; Example 2: person, optic neuritis secondary to MS, six days after start, before therapy 20/300 bilaterally): 21/30
- fatigue, ataxia and fine motor function after restarting ([1]; Example 3: after stopping and restarting Peptide T): remarkable improvement
- patient-reported symptoms after start of therapy ([1]; Example 3: person with MS, 8.5 mg subcutaneously daily, within 1 to 2 weeks): subjective improvement
- patient-reported symptoms ([1]; Example 4: person, 8.5 mg subcutaneously daily, within 10 days): increased energy and intellectual function, and improved vision
- Proliferation Index ± S.D. (PBMC; Peptide T added Daily, 10^-7 Mol/L): 1.83 ± 0.36
- Proliferation Index ± S.D. (PBMC; Peptide T added Daily, 10^-9 Mol/L): 0.98 ± 0.16
- Proliferation Index ± S.D. (PBMC; Peptide T added Daily, 10^-11 Mol/L): 1.56 ± 0.14
- Proliferation Index ± S.D. (PBMC; Peptide T added Daily, 10^-13 Mol/L): 1.38 ± 0.51
- Proliferation Index ± S.D. (PBMC; Peptide T added Daily, 10^-15 Mol/L): 1.56 ± 0.61
- Proliferation Index ± S.D. (PBMC; Peptide T added Daily, 10^-17 Mol/L): 1.60 ± 0.60
- Proliferation Index ± S.D. (PBMC; Peptide T added Daily, 10^-19 Mol/L): 2.27 ± 1.09
- Proliferation Index ± S.D. (PBMC; Peptide T added Day 1, 10^-7 Mol/L): 4.02 ± 0.78
- Proliferation Index ± S.D. (PBMC; Peptide T added Day 1, 10^-9 Mol/L): 1.91 ± 0.46
- Proliferation Index ± S.D. (PBMC; Peptide T added Day 1, 10^-11 Mol/L): 5.35 ± 1.46
- Proliferation Index ± S.D. (PBMC; Peptide T added Day 1, 10^-13 Mol/L): 5.46 ± 1.37
- Proliferation Index ± S.D. (PBMC; Peptide T added Day 1, 10^-15 Mol/L): 5.56 ± 0.60
- Proliferation Index ± S.D. (PBMC; Peptide T added Day 1, 10^-17 Mol/L): 3.99 ± 0.18
- Proliferation Index ± S.D. (PBMC; Peptide T added Day 1, 10^-19 Mol/L): 6.15 ± 2.59
- TNFα (TNFα; PBMC+Con A (6.25µg/ml)+Peptide T 10^-9M, 48 hours, PBMC+Con A alone 69.0 ± 6.9): 47.0 ± 0.1 fmol/100ul
- TNFα (TNFα; PBMC+RPMI+Peptide T, no Con A, 48 hours): <1 fmol/100ul
- TNFα (TNFα; RPMI+Peptide T (no cells), Peptide T 10^-9M): <1 fmol/100ul
- growth of Molt-4 cell line (Molt-4): did not significantly affect
- cytotoxicity of activated MO/MAC (K562 target cells; Peptide T added concurrently with target cells or every day of the culture): able to inhibit
- ability of resting MO/MAC to be activated (K562 target cells; Peptide T added concurrently with the activators): did not affect
- concentration below which cytotoxicity returned to control levels (K562 cells; Figure 8): below 1x10^-15 M
- concentration still able to block MO/MAC SN mediated lysis of K562 (K562 cells; SN at final dilution of 1:6): 0.1 pM
- tissue factor expression [2]: progressively reduce tissue factor expression
